According to the supplement of paper PMC10307832:

What was measured:
Experiment in all cases: relative viability (nuclei count vs DMSO), 5 days (fraction); higher = more cells survive
[1] = test system: NCI-H838
Procedure, shortened: (§1)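 Cells from lung cancer lines were seeded into 1536-well plates and, one day later, dosed by pin tool. Treatments were either a single drug or a fixed dose of an anchor drug with five library-drug doses (not always all listed) in √10 steps. After 5 days, nuclei were stained in a one-step fixation (final 0.05% Triton X-100, 1% formaldehyde, 1 ug/ml Hoechst) and counted on 4× images, and relative viability is the treated-to-vehicle nuclei ratio, as the median of duplicate plates.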

[2] = test system: LK-2
Procedure, shortened: as §1

[3] = test system: HCC-366
Procedure, shortened: as §1

[4] = test system: NCI-H2342
Procedure, shortened: as §1

[5] = test system: NCI-H522
Procedure, shortened: as §1

[6] = test system: LXF-289
Procedure, shortened: as §1

[7] = test system: COR-L23
Procedure, shortened: as §1

[8] = test system: HCC-827
Procedure, shortened: as §1

[9] = test system: NCI-H1975
Procedure, shortened: as §1

[10] = test system: PC-14
Procedure, shortened: as §1

[11] = test system: HOP-62
Procedure, shortened: as §1

[12] = test system: NCI-H2085
Procedure, shortened: as §1

[13] = test system: LU99A
Procedure, shortened: as §1

[14] = test system: COR-L 105
Procedure, shortened: as §1

[15] = test system: HARA
Procedure, shortened: as §1

[16] = test system: NCI-H2023
Procedure, shortened: as §1

[17] = test system: NCI-H1944
Procedure, shortened: as §1

[18] = test system: SW 900
Procedure, shortened: as §1

[19] = test system: HCC-44
Procedure, shortened: as §1

[20] = test system: HCC-15
Procedure, shortened: as §1

[21] = test system: NCI-H647
Procedure, shortened: as §1

[22] = test system: CAL-12T
Procedure, shortened: as §1

[23] = test system: LC-2-ad
Procedure, shortened: as §1

With `C=C1C(=O)O[C@@H](CCCCCCCC)[C@@H]1C(=O)O` [C-75] + CC(=O)c1c(C)c2cnc(Nc3ccc(N4CCNCC4)cn3)nc2n(C2CCCC2)c1=O [Palbociclib] (partner 0.5 µM) the relative viability ([1]; first compound 0.08 µM) was 0.227, the relative viability ([1]; first compound 0.253 µM) was 0.206 and the relative viability ([1]; first compound 0.8 µM) was 0.194. The relative viability ([1]; first compound 2.53 µM) was 0.207, the relative viability ([1]; first compound 8 µM) was 0.206 and the relative viability ([2]; first compound 0.08 µM) was 0.779. It also gave a relative viability ([2]; first compound 0.253 µM) of 0.754, a relative viability ([2]; first compound 0.8 µM) of 0.723 and a relative viability ([2]; first compound 2.53 µM) of 0.495. It also gave a relative viability ([2]; first compound 8 µM) of 0.573, a relative viability ([3]; first compound 0.08 µM) of 0.363 and a relative viability ([3]; first compound 0.253 µM) of 0.477. It also gave a relative viability ([3]; first compound 0.8 µM) of 0.33, a relative viability ([3]; first compound 2.53 µM) of 0.334 and a relative viability ([3]; first compound 8 µM) of 0.343. For the same compound, the relative viability ([4]; first compound 0.08 µM) was 0.546, the relative viability ([4]; first compound 0.253 µM) was 0.488 and the relative viability ([4]; first compound 0.8 µM) was 0.551. The relative viability ([4]; first compound 2.53 µM) was 0.541, the relative viability ([4]; first compound 8 µM) was 0.571 and the relative viability ([5]; first compound 0.08 µM) was 1.27. For the same compound, the relative viability ([5]; first compound 0.253 µM) was 0.989, the relative viability ([5]; first compound 0.8 µM) was 1.06 and the relative viability ([5]; first compound 2.53 µM) was 0.698. The relative viability ([5]; first compound 8 µM) was 0.779, the relative viability ([6]; first compound 0.08 µM) was 0.567 and the relative viability ([6]; first compound 0.253 µM) was 0.553. The relative viability ([6]; first compound 0.8 µM) was 0.597, the relative viability ([6]; first compound 2.53 µM) was 0.604 and the relative viability ([6]; first compound 8 µM) was 0.621. The relative viability ([7]; first compound 0.08 µM) was 0.353, the relative viability ([7]; first compound 0.253 µM) was 0.305 and the relative viability ([7]; first compound 0.8 µM) was 0.255. It also gave a relative viability ([7]; first compound 2.53 µM) of 0.24, a relative viability ([7]; first compound 8 µM) of 0.28 and a relative viability ([8]; first compound 0.253 µM) of 0.519. For the same compound, the relative viability ([8]; first compound 0.8 µM) was 0.5, the relative viability ([8]; first compound 8 µM) was 0.494 and the relative viability ([9]; first compound 0.08 µM) was 0.67. The relative viability ([9]; first compound 0.253 µM) was 0.433, the relative viability ([9]; first compound 0.8 µM) was 0.525 and the relative viability ([9]; first compound 2.53 µM) was 0.484. For the same compound, the relative viability ([9]; first compound 8 µM) was 0.581, the relative viability ([10]; first compound 0.08 µM) was 0.54 and the relative viability ([10]; first compound 0.253 µM) was 0.546. It also gave a relative viability ([10]; first compound 0.8 µM) of 0.504, a relative viability ([10]; first compound 2.53 µM) of 0.453 and a relative viability ([10]; first compound 8 µM) of 0.445. For the same compound, the relative viability ([11]; first compound 0.08 µM) was 0.46, the relative viability ([11]; first compound 0.253 µM) was 0.431 and the relative viability ([11]; first compound 0.8 µM) was 0.484. It also gave a relative viability ([11]; first compound 2.53 µM) of 0.361, a relative viability ([11]; first compound 8 µM) of 0.413 and a relative viability ([12]; first compound 0.08 µM) of 0.491. The relative viability ([12]; first compound 0.253 µM) was 0.403, the relative viability ([12]; first compound 0.8 µM) was 0.443 and the relative viability ([12]; first compound 2.53 µM) was 0.436. For the same compound, the relative viability ([12]; first compound 8 µM) was 0.468, the relative viability ([13]; first compound 0.08 µM) was 0.383 and the relative viability ([13]; first compound 0.253 µM) was 0.354. For the same compound, the relative viability ([13]; first compound 0.8 µM) was 0.481, the relative viability ([13]; first compound 2.53 µM) was 0.408 and the relative viability ([13]; first compound 8 µM) was 0.398. It also gave a relative viability ([14]; first compound 0.08 µM) of 0.417, a relative viability ([14]; first compound 0.253 µM) of 0.41 and a relative viability ([14]; first compound 0.8 µM) of 0.358. The relative viability ([14]; first compound 2.53 µM) was 0.303, the relative viability ([14]; first compound 8 µM) was 0.39 and the relative viability ([15]; first compound 0.08 µM) was 0.254. For the same compound, the relative viability ([15]; first compound 0.253 µM) was 0.222, the relative viability ([15]; first compound 0.8 µM) was 0.273 and the relative viability ([15]; first compound 2.53 µM) was 0.222. It also gave a relative viability ([15]; first compound 8 µM) of 0.28, a relative viability ([16]; first compound 0.08 µM) of 0.395 and a relative viability ([16]; first compound 0.253 µM) of 0.449. For the same compound, the relative viability ([16]; first compound 0.8 µM) was 0.358, the relative viability ([16]; first compound 2.53 µM) was 0.244 and the relative viability ([16]; first compound 8 µM) was 0.276. For the same compound, the relative viability ([17]; first compound 0.08 µM) was 0.34, the relative viability ([17]; first compound 0.253 µM) was 0.296 and the relative viability ([17]; first compound 0.8 µM) was 0.279. The relative viability ([17]; first compound 2.53 µM) was 0.305, the relative viability ([17]; first compound 8 µM) was 0.305 and the relative viability ([18]; first compound 0.08 µM) was 0.49. The relative viability ([18]; first compound 0.253 µM) was 0.647, the relative viability ([18]; first compound 0.8 µM) was 0.601 and the relative viability ([18]; first compound 2.53 µM) was 0.594. It also gave a relative viability ([18]; first compound 8 µM) of 0.607, a relative viability ([19]; first compound 0.08 µM) of 0.971 and a relative viability ([19]; first compound 0.253 µM) of 1.1. For the same compound, the relative viability ([19]; first compound 0.8 µM) was 1.02, the relative viability ([19]; first compound 2.53 µM) was 0.956 and the relative viability ([19]; first compound 8 µM) was 0.996. It also gave a relative viability ([20]; first compound 0.08 µM) of 0.717, a relative viability ([20]; first compound 0.253 µM) of 0.699 and a relative viability ([20]; first compound 0.8 µM) of 0.605. For the same compound, the relative viability ([20]; first compound 2.53 µM) was 0.628, the relative viability ([20]; first compound 8 µM) was 0.664 and the relative viability ([21]; first compound 0.08 µM) was 0.312. The relative viability ([21]; first compound 0.253 µM) was 0.384, the relative viability ([21]; first compound 0.8 µM) was 0.394 and the relative viability ([21]; first compound 2.53 µM) was 0.239. For the same compound, the relative viability ([21]; first compound 8 µM) was 0.236, the relative viability ([22]; first compound 0.08 µM) was 0.531 and the relative viability ([22]; first compound 0.253 µM) was 0.533. For the same compound, the relative viability ([22]; first compound 0.8 µM) was 0.452, the relative viability ([22]; first compound 2.53 µM) was 0.458 and the relative viability ([22]; first compound 8 µM) was 0.449. The relative viability ([23]; first compound 0.08 µM) was 0.555, the relative viability ([23]; first compound 0.253 µM) was 0.474 and the relative viability ([23]; first compound 0.8 µM) was 0.471. It also gave a relative viability ([23]; first compound 2.53 µM) of 0.381 and a relative viability ([23]; first compound 8 µM) of 0.482.
